US20260200982A1, “HER RECEPTOR DERIVED PEPTIDES AND METHODS OF USE THEREOF” (Ramot at Tel-Aviv University Ltd., priority 2022, published 2026)
Where a SMILES comes first, the peptide text is derived from it. Bridges are numbered along the chain shown (N, C = ends). Where no end group is shown, it is not given here. [ ]: non-standard residue; d: D form. The star is where a group is joined. Myristoyl = CCCCCCCCCCCCCC(=O)*; S5 = C=CCCC[C@](C)(N)C(=O)O

How the values were obtained:
MCF7 breast cancer cells = assay type: cell-based, human; settings: for MCF7 cell viability: 10 μM peptide, FIGS. 6A-B
Excerpt: (§1) Cell lines—Human breast cancer cell lines SKBR3 [Peles E et al. EMBO J. (1993) 12(3):961-71] and MCF7 [Faigenbloom L et al., Mol Syst Biol. (2015) 11(12):845] and human glioblastoma U87 [Goldberg L et al. Cancer Res. (2006) 66(24):11709-17] cell line, as well as Rat-1 fibroblast cells and H-Ras-transformed Rat-1 cells (EJ cells) [Marom M et al. J Biol Chem. (1995) 270(38):22263-70] and human Panc-1 and MIA PaCa-2 pancreatic cell lines (Rak R et al. Oncoscience. 2014 1(1):39-48; Weisz B et al. Oncogene (1999) 18, 2579±2588) were all grown in Dulbecco's modified Eagle's medium (DMEM; Biological Industries, Beithaemek, Israel). Human colorectal cancer cell lines DLD-1 (ATTC Cat No. CCL-221), HCT-116 (ATTC Cat No. CCL-247) and LNCaP prostate cancer cells were grown in Roswell Park Memorial Institute 1640 (RPMI 1640) medium and McCoy's 5A media, respectively (Sigma-Aldrich). All media were supplemented with antibiotics and 10% heat-inactivated fetal bovine serum (FBS; Gibco). Human breast cell line MCF10A [Bott A et al. Oncotarget. (2017) 8(27):43897-43914] was grown in Dulbeco's Modified Eagle's Medium/Nutrient Mixture F-12 HAM medium (DMEM F-12 HAM; Sigma-Aldrich), supplemented with antibiotics, 5% inactivated horse serum (HS; Invitrogen), 2 mM L-glutamine (Biological Industries, Beithaemek, Israel), 0.1 μg/ml cholera toxin (Sigma-Aldrich), 0.5 μg/ml hydrocortisone (Sigma-Aldrich), 10 μg/ml insulin (Biological Industries, Beithaemek, Israel) and 2 ng/ml EGF (R&D Systems). Cells were incubated at 37° C. in 5% CO2 in air, and the medium was changed every 3-4 days. Cells were passaged in trypsin/disodium ethylenediaminetetraacetic acid (Biological Industries, Beithaemek, Israel) when confluency reached 70%. One day prior to treatment the cells were plated at ~50% confluency in a medium supplemented with 10% FBS or 5% HS, accordingly.
(§2) Methylene blue viability assay—Cells were plated in 96-wells plates at cell densities of 1.5×10^3 (EJ, DLD-1), 3×10^3 (Rat-1, HCT-116, U87), 5×10^3 (SKBR3, MCF7) and 6×10^3 (MCF10A) cells/well. […] Cell number determination was performed as described previously. IC-50 values were calculated using a non-linear regression model (logarithmic inhibitor vs. normalized response-variable slope) with the GraphPad Prism 6 software.

[1] = test system: non-cancerous (MCF10A) breast cell line; test: Methylene blue viability assay, MCF10A; assay type: cell-based, human; settings: for viability of non-cancerous MCF10 breast cells: 72 hours, 10 μM peptide, FIGS. 6A-B
Excerpt: as §1
(§3) Methylene blue viability assay—Cells were plated in 96-wells plates at cell densities of 1.5×10^3 (EJ, DLD-1), 3×10^3 (Rat-1, HCT-116, U87), 5×10^3 (SKBR3, MCF7) and 6×10^3 (MCF10A) cells/well. On the following day, cells were treated as indicated, and grown for 72 hours. Cell number determination was performed as described previously. IC-50 values were calculated using a non-linear regression model (logarithmic inhibitor vs. normalized response-variable slope) with the GraphPad Prism 6 software.

[2] = test system: SKBR3 breast cancer cells; assay type: cell-based, human
Excerpt: as §1, §2

DLD-1 colon cancer cells = assay type: cell-based, human
Excerpt: as §1, §3

[3] = test system: HCT-116 colon cancer cells; assay type: cell-based, human
Excerpt: as §1, §3

[4] = molecular target: T1, ErbB2-nucleolin complexes (Homo sapiens, UniProt P19338); test: Proximity Ligation Assay (PLA); assay type: cell-based; settings: SKBR3 cells, 53 μM, 48 hours, FIG. 3A
T1 construct: endogenous in cells; host or cells: SKBR3
T1 sequence (P19338 2-710 limits assumed, one chain of several): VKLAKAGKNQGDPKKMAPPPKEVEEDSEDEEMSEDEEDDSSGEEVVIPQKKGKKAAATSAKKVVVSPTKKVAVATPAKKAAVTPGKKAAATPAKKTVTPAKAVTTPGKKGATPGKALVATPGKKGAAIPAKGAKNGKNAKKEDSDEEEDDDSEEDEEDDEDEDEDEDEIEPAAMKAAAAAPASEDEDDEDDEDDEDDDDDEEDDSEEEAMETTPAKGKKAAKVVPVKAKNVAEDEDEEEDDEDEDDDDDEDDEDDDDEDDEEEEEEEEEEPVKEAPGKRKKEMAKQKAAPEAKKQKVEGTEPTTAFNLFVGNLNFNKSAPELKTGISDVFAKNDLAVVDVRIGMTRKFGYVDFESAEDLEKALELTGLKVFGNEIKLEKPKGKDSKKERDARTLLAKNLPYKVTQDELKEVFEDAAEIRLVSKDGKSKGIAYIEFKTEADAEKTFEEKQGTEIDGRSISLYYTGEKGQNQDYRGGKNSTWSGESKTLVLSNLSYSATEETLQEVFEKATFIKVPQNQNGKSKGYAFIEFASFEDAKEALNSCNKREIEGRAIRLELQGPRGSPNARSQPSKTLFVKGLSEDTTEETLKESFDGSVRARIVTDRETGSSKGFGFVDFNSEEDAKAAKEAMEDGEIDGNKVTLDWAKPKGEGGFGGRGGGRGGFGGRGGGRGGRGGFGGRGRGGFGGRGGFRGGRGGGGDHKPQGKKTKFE
Experimental: Proximity Ligation Assay (PLA)—For proximity ligation assay (PLA) cells were plated in a 16-wells Nunc Lab-Tek glass Chamber Slide System (178599; Thermo Scientific) at a density of 3.5×10^3 cells/well. 2 hours post-seeding the cells were treated with 53 μM of either TAT peptide (SEQ ID NO: 2) or TAT-NLS peptide (SEQ ID NO: 3) and grown for 48 hours. Following fixation, cells were incubated with rabbit anti-ErbB2 and mouse anti-nucleolin antibodies. PLA was performed using the Duolink In-Situ PLA probes: anti-rabbit MINUS and anti-mouse PLUS, and the Duolink In-Situ Detection Reagents Red kit (DUO92005; DUO92001; DUO92008, respectively; Sigma-Aldrich), according to the manufacturer's instructions. Nuclei were stained using the Duolink In-Situ Mounting Medium with DAPI (DUO82040; Sigma-Aldrich). Slides were visualized 24 hours post-staining and images were obtained using an Olympus motorized inverted research microscope Model IX81 (60× magnification). Signal intensity was determined using ImageJ software.

ErbB2 = test: Immunoblotting of cell lysates, ErbB2 phosphorylation; assay type: cell-based, human; settings: SKBR3, DLD-1 and HCT116; 50 μM, 24 hours; FIG. 3B
Experimental: (§4) Lysate preparation and immunoblotting—Cells were seeded at cell densities of 1.5×10^5 (DLD-1), 1.8×10^5 (HCT-116) and 2.5×10^5 (SKBR3) cells/well, treated as indicated and grown for 24 hours. Following, cells were lysed in solubilization buffer; the lysates were cleared by centrifugation and a boiling gel sample buffer was added. Proteins were resolved by SDS-polyacrylamide gel electrophoresis through 10% polyacrylamide gels, and were electrophoretically transferred to nitrocellulose membranes. Membranes were blocked in TBST buffer containing 6% milk, and blotted with primary antibodies. Following, a secondary antibody linked to horseradish peroxidase was added. Immunoreactive bands were detected with the enhanced chemiluminescence reagent Immobilon Crescendo Western HRP substrate (WBLUR0100; Merck Millipore).

EGFR (ErbB1) = test: Immunoblotting of cell lysates, EGFR phosphorylation; assay type: cell-based, human; settings: SKBR3, DLD-1 and HCT116; 50 μM, 24 hours; FIG. 3B
Experimental: as §4

DLD-1 cells = test: Colony formation assay, DLD-1; assay type: cell-based, human; settings: 20 μM, 72 hours, FIG. 12
Experimental: Colony formation assay—Cells were plated onto 12-well plate (6×10^4 cells/well) and treated with either PBS or myr-NLS at the IC50 concentration for 3 days. Cells were collected and replated in 10-cm plates (at 3 dilutions of 1:10, 1:20 and 1:40). After 7-14 days when visible and yet separated colonies were formed, the cells were fixed with 0.1% acetic acid in PBS, and stained with 0.4% crystal violet in 0.1% acetic acid. Total colonies area was calculated using the ImageJ program.
In addition, a colony formation assay was conducted to further examine the anti-tumor effect of the myr-NLS (SEQ ID NO: 5), myr-NLS2 (SEQ ID NO: 15) and myr-NLS4 (SEQ ID NO: 17) peptides. To this end, DLD-1 cells were treated or untreated for 72 hours with 20 μM of the myr-peptides. Cells were then seeded at the same dilutions in new plates until colonies were formed.

[5] = test system: DLD-1 colon cancer tumor xenografts; test: Colon Tumor Growth in Nude Mice; assay type: in vivo; settings: DLD-1 xenografts, 25 μg/100 μl PBS intraperitoneal daily, FIGS. 14A-C
Experimental: Colon Tumor Growth in Nude Mice—Nude CD1-Nu mice (25-30 g) housed in barrier facilities on a 12-h light/dark cycle one week prior to the injection of tumor cells (day zero). On day zero, 5×10^6 DLD-1 cells were implanted subcutaneously just above the right femoral joint. Tumor size was measured every 3-4 days. When the tumors were apparently seen, the animals were divided randomly into three groups of mice [control vehicle treated, myr-NLS1 (SEQ ID NO: 5), myr-NLS4 (SEQ ID NO: 17)]. Treatment was performed by intraperitoneal injection of 25 μg in 100 μl PBS every day. Mice were weighed and tumors size was measured 3 times a week. At the end of the experiment, the mice were sacrificed, and the tumors were dissected and used for further analysis.

U87 glioma cells = assay type: cell-based, human; settings: 72 h
Excerpt: as §1, §3

[6] = test system: Panc-1 pancreatic cancer cells; assay type: cell-based, human; settings: 72 h
Excerpt: as §1, §3

[7] = test system: H-Ras-transformed Rat-1 cells (EJ cells); assay type: cell-based
Excerpt: Cell lines—Human breast cancer cell lines SKBR3 [Peles E et al. EMBO J. (1993) 12(3):961-71] and MCF7 [Faigenbloom L et al., Mol Syst Biol. (2015) 11(12):845] and human glioblastoma U87 [Goldberg L et al. Cancer Res. (2006) 66(24):11709-17] cell line, as well as Rat-1 fibroblast cells and H-Ras-transformed Rat-1 cells (EJ cells) [Marom M et al. J Biol Chem. (1995) 270(38):22263-70] and human Panc-1 and MIA PaCa-2 pancreatic cell lines (Rak R et al. Oncoscience. 2014 1(1):39-48; Weisz B et al. Oncogene (1999) 18, 2579±2588) were all grown in Dulbecco's modified Eagle's medium (DMEM; Biological Industries, Beithaemek, Israel). Human colorectal cancer cell lines DLD-1 (ATTC Cat No. CCL-221), HCT-116 (ATTC Cat No. CCL-247) and LNCaP prostate cancer cells were grown in Roswell Park Memorial Institute 1640 (RPMI 1640) medium and McCoy's 5A media, respectively (Sigma-Aldrich). All media were supplemented with antibiotics and 10% heat-inactivated fetal bovine serum (FBS; Gibco). Human breast cell line MCF10A [Bott A et al. Oncotarget. […]
Methylene blue viability assay—Cells were plated in 96-wells plates at cell densities of 1.5×10^3 (EJ, DLD-1), 3×10^3 (Rat-1, HCT-116, U87), 5×10^3 (SKBR3, MCF7) and 6×10^3 (MCF10A) cells/well. […] IC-50 values were calculated using a non-linear regression model (logarithmic inhibitor vs. normalized response-variable slope) with the GraphPad Prism 6 software.

[8] = 30 μM peptide for 48 hours, FIG. 5A

Molecule: Myr-RRRHIVRKRT(S5)RRL(S5) (Myristoyl-RRRHIVRKRT[S5]RRL[S5]; staple 11-15) [mN11-15]
- MCF7 cell viability (MCF7 breast cancer cells; 72 hours): decreased MCF7 cell viability
- viability of non-cancerous MCF10 breast cells [1]: had no effect

Molecule: GRKKRRQRRRPPQRRRHIVRKRTLRRLL [TAT-NLS]
- cell growth of MCF7 breast cancer cells (MCF7 breast cancer cells; 72 hours, FIGS. 2A-C): inhibited cell growth
- IC50 on cell viability (MCF7 breast cancer cells; MCF7, 72 hours, FIG. 2C): 49.5 µM
- cell growth of SKBR3 breast cancer cells ([2]; 72 hours, FIGS. 2A-C): inhibited cell growth
- IC50 on cell viability ([2]; SKBR, 72 hours, FIG. 2C): 83.1 µM
- cell growth of DLD-1 colon cancer cells (DLD-1 colon cancer cells; 72 hours, FIGS. 2A-C): inhibited cell growth
- IC50 on cell viability (DLD-1 colon cancer cells; DLD-1, 72 hours, FIG. 2C): 40.2 µM
- cell growth of HCT-116 colon cancer cells ([3]; 72 hours, FIGS. 2A-C): inhibited cell growth
- IC50 on cell viability ([3]; HCT116, 72 hours, FIG. 2C): 27.7 µM
- interaction between the ErbB2 receptor and nucleolin (PLA) [4]: reduced the interaction
- interaction between the ErbB2 receptor and nucleolin (PLA) ([4]; listed as TAL-NLS): disrupts the ErbB-nucleolin interaction
- ErbB2 phosphorylation (ErbB2): inhibited
- viability of the non-cancerous cells MCF10 ([1]; FIGS. 2A-C): not affecting viability
- ErbB1 phosphorylation (EGFR (ErbB1)): inhibited

Molecule: Myr-RRKSIKKKRALRRFL-OH (Myristoyl-RRKSIKKKRALRRFL-OH; SMILES CCCCCCCCCCCCCC(=O)N[C@@H](CCCNC(=N)N)C(=O)N[C@@H](CCCNC(=N)N)C(=O)N[C@@H](CCCCN)C(=O)N[C@@H](CO)C(=O)N[C@H](C(=O)N[C@@H](CCCCN)C(=O)N[C@@H](CCCCN)C(=O)N[C@@H](CCCCN)C(=O)N[C@@H](CCCNC(=N)N)C(=O)N[C@@H](C)C(=O)N[C@@H](CC(C)C)C(=O)N[C@@H](CCCNC(=N)N)C(=O)N[C@@H](CCCNC(=N)N)C(=O)N[C@@H](Cc1ccccc1)C(=O)N[C@@H](CC(C)C)C(=O)O)[C@@H](C)CC) [myr-NLS4]
- colony formation (total colonies area) (DLD-1 cells): fewer and smaller colonies
- tumor growth (tumor size, tumor weight) [5]: significantly reduced tumor cell growth

Molecule: CCCCCCCCCCCCCC(=O)N[C@@H](CCCNC(=N)N)C(=O)N[C@@H](CCCNC(=N)N)C(=O)N[C@@H](CCCNC(=N)N)C(=O)N[C@@H](Cc1c[nH]cn1)C(=O)N[C@H](C(=O)N[C@@]1(C)CCCC=CCCC[C@@](C)(C(=O)N[C@@H](CC(C)C)C(=O)N[C@@H](CCCNC(=N)N)C(=O)N[C@@H](CCCNC(=N)N)C(=O)N[C@@H](CC(C)C)C(=O)N[C@@H](CC(C)C)C(=O)O)NC(=O)[C@H](CCCNC(=N)N)NC(=O)[C@H](CCCCN)NC(=O)[C@H](CCCNC(=N)N)NC1=O)[C@@H](C)CC [mN6-10, Myr-RRRHI(S5)RKR(S5)LRRLL] (Myristoyl-RRRHI[S5]RKR[S5]LRRLL-OH; staple 6-10; C-terminus assumed)
- IC50 (MCF7 breast cancer cells): 9.7 µM
- viability of MCF7 breast cancer cells (MCF7 breast cancer cells; [8]): even more efficient than the myr-NLS peptide
- MCF7 cell viability (MCF7 breast cancer cells; 72 hours): decreased MCF7 cell viability
- viability of SKBR3 breast cancer cells [2, 8]: even more efficient than the myr-NLS peptide
- IC50 ([2]; 72 h): 18.9 µM
- IC50 (U87 glioma cells): 15.9 µM
- IC50 (DLD-1 colon cancer cells; 72 h): 9.4 µM
- IC50 [6]: 7.6 µM
- IC50 ([3]; 72 h): 13.3 µM
- IC50 [7]: 11.6 µM
- viability of non-cancerous MCF10 breast cells [1]: had no effect
